Measured values from patent US12419875B2, “Use of Axitinib and analogs thereof in preparing blood-brain barrier permeability regulator” (ZHEJIANG UNIVERSITY, priority 2018, dated 2025).

Assays:
bEnd.3 cells = assay: Cell survival rate by tetrazolium blue colorimetry, bEnd.3 cells; assay type: cell-based; details: 10 μM (therapeutic dose), FIGS. 13 and 14
Protocol: (§1) FIG. 13: Evaluation of cell survival rate in a Transwell model. A Transwell model of co-incubation of brain microvascular endothelial cells bEnd.3 and glioma cells U87 MG simulates a pathological blood-brain barrier. Axitinib (10 μM) and an Axitinib analog of phosphatidylinositol kinase (PI3K) inhibitor LY294002 (10 μM) were added into the Transwell chamber. After 24 hours, the survival rate of bEnd.3 cells in the Transwell chamber (Panel A) and U87 MG cells in the Transwell outer chamber (Panel B) were detected by tetrazolium blue colorimetry (n=3).
(§2) FIG. 14: Evaluation of Cytotoxicity for Axitinib and an analog thereof. […] Cell survival rate was detected by tetrazolium blue colorimetry. […]
(§3) The physiological blood-brain barrier and the pathological blood-brain barrier as constructed in Method 1 and Method 2 in the Example 1 were used as models, respectively. […] Absorbance at 570 nm was measured with a microplate reader. The survival rate of cells was calculated according to the following formula: Survival rate of cells (%)=(absorbance value of a test group/absorbance value of a control group)×100%
(§4) In addition, bEnd.3 cells and U87 MG glioma cells were used as model cells to evaluate the cytotoxicity of Axitinib and an Axitinib analog of phosphatidylinositol kinase (PI3K) inhibitor LY294002 with the tetrazolium blue colorimetric method. […] Absorbance at 570 nm was measured with a microplate reader.

U87 MG glioma cells = assay: Cell survival rate by tetrazolium blue colorimetry, U87 MG cells; assay type: cell-based; details: U87MG cells, 10 μM (therapeutic dose); FIGS. 13 and 14
Protocol: as §1, §2, §3, §4

[1] = test system: model of Parkinson's disease; assay: Movement time within 2 minutes, model of Parkinson's disease; assay type: in vivo, C57/BL6 mice; details: Axitinib 10 mg/kg 7 days; levodopa 20 mg/kg 10 days; vs Parkinson's control; FIG. 28
Protocol: After the treatment was accomplished, movement time within 2 minutes (walking, lifting of both forelimbs, washing face, hair grooming and the like) was recorded for each of the test groups (n=5).
After the Axitinib treatment and the levodopa treatment was accomplished, movement time within 2 minutes (walking, lifting of both forelimbs, washing face, hair grooming and the like) was recorded for each of the test groups.

tyrosine hydroxylase = assay: Striatum tyrosine hydroxylase immunohistochemistry, model of Parkinson's disease; details: Axitinib 10 mg/kg 7 days; levodopa 20 mg/kg 10 days; FIG. 29
[2] = test system: pathological blood-brain barrier; assay: Evans blue permeation into the brain after treatment, model of Parkinson's disease; assay type: in vivo, C57/BL6 mice; details: Axitinib 10 mg/kg tail vein 7 days; levodopa 20 mg/kg intraperitoneally 10 days; vs Parkinson's control; FIGS. 26 and 27

| SMILES | Cytotoxicity (bEnd.3 cells) | Cytotoxicity (U87 MG glioma cells) | Dyskinesia (movement time within 2 minutes) [1] | Expression of striatum tyrosine hydroxylase (tyrosine hydroxylase) | Amount of Evans blue permeated into the brain [2] |
| --- | --- | --- | --- | --- | --- |
| O=c1cc(N2CCOCC2)oc2c(-c3ccccc3)cccc12 [LY294002] | do not produce significant cytotoxicity | do not produce significant cytotoxicity |  |  |  |
| N[C@@H](Cc1ccc(O)c(O)c1)C(=O)O [levodopa] |  |  | significantly alleviated | significantly up-regulated | reduced to varied degrees |
